Measured values published in US11064698B2, “Tetrazolinone compound and use thereof” (SUMITOMO CHEMICAL COMPANY, LIMITED, priority 2017, dated 2021).

Tests used:
Assay type in all cases: in vivo
[1] = system: diamondback moth (Plutella xylostella); experiment: Control test against diamondback moth (Plutella xylostella); conditions: 500 ppm active ingredient, sprayed on cabbage seedlings 20 mL/seedling, 2nd instar larvae, after 5 days, 25° C.
Protocol: Next, a Test Example is used to show efficacy of the Present compound against pests. In the following Test Example, the test was carried out at 25° C. Test Example 1 Control test against diamondback moth (Plutella xylostella) The Present compound was formulated according to the process described in the Formulation Example 6 to obtain a formulation, and water containing a spreader (0.03% by volume) was added thereto to prepare a diluted solution containing 500 ppm of the active ingredient. Cabbage (Brassicae oleracea) seedlings (on the developmental stage of the second to third true leaf) were planted in a container, and said diluted solution was sprayed into the leaves of the seedlings at a ratio of 20 mL/seedling. Thereafter, the stems and leaves of the seedlings were cut out, and the leaves were placed into a container lined with a filter paper. Approximately five the 2nd instar larvae of diamondback moth (Plutella xylostella) were released into the container. After 5 days, the number of the surviving insects was examined, and the controlling value was calculated by the following equation. […] Controlling value (%)={1−(Cb×Tai)/(Cai×Tb)}×100 wherein the symbols in the equation represent the following meanings. […]

[2] = system: net blotch (Pyrenophora teres) on barley; experiment: Preventive efficacy by foliage application against net blotch on barley
[3] = system: Septoria leaf blotch (Septoria tritici) on wheat; experiment: Preventive efficacy by foliage application against Septoria leaf blotch on wheat

Compound	Controlling value (control effects) [1] [%]	preventive efficacy against net blotch (Pyrenophora teres) [2]	preventive efficacy against Septoria leaf blotch (Septoria tritici) [3]
Cc1cccc(-n2nnn(C)c2=O)c1CN1C(=O)CCN1c1ccc(Cl)cc1 [Present compound]	100		
Cc1cccc(-n2nnn(C)c2=O)c1COC1=NN(c2ccc(Cl)cc2)CC1 [compound represented by formula (4)]		showed preventive efficacy	showed preventive efficacy
